Reference: patent US11266655B2, “Methods and compositions for treating urea cycle disorders” (Camp4 Therapeutics Corporation, priority 2019, dated 2022)
Like-named read-outs stand apart in the source and are kept apart here.

Tests used:
[1] = system: OTC; assay: siRNA knockdown of JAK/STAT/IRF genes in hepatocytes, OTC mRNA; assay type: cell-based, human; settings: 10 nM siRNA plus 0.03 nM JAK1 siRNA, FIG. 27C
Excerpt: To confirm that JAK1 inhibition is necessary for OTC and CPS1 gene expression increase, JAK1, JAK2, and JAK3 expression was knocked down using the siRNA methods previously described in Example 1 (JAK1 siRNA Dharmacon #M-003145-02-0005; JAK2 siRNA Dharmacon #M-003146-02-0005; JAK3 siRNA Dharmacon #M-003147-01-0005). The cells were harvest for mRNA collection and quantification as previously described.
In addition, STAT5B is a JAK1 signal transducer and transcription factor activated by JAK1. STAT5B was knocked down in hepatocytes using siRNA (Dharmacon cat #M-010539-02-0005) as previously described in Example 1. The cells were harvest for mRNA collection and quantification as previously described.
To confirm the role of JAK1 and investigate the role of other signaling proteins and transcription factors in OTC and CPS1 expression, a panel of additional genes were knocked down with siRNA alone or in combination with JAK1. In particular, JAK2 was knockdown alone or in combination with JAK1. The combinations are shown in FIG. 26A and FIG. 26B. siRNA used to knock down JAK1 and JAK2 were: JAK1 siRNA Dharmacon #M-003145-02-0005; JAK2 siRNA Dharmacon #M-003146-02-0005. OTC and CPS1 mRNA expression was normalized to B2M. The assay was performed in triplicate in three donor hepatocyte cell lines: 371, 171, and 511A.
Cells were harvested after siRNA treatment for mRNA quantification. JAK1, OTC, and CPS1 mRNA levels were normalized to GUSB.

[2] = system: NAGS; assay type: cell-based, human
[3] = system: calcium channel; settings: cited from earlier work
[4] = system: CPS1; assay: RNA-seq of compound-treated primary human hepatocytes, CPS1 expression; assay type: cell-based; settings: primary human hepatocytes; for CPS1 expression, Fold change (Log 2) vs untreated: RNA-seq
[5] = system: OTC; assay: RNA-seq of compound-treated primary human hepatocytes, OTC expression; assay type: cell-based; settings: for OTC expression, Fold change (Log 2) vs untreated: RNA-seq
[6] = system: ARG1; assay: RNA-seq of compound-treated primary human hepatocytes, ARG1 expression; assay type: cell-based; settings: for Fold change (Log 2) vs untreated, ARG1 expression: primary human hepatocytes, RNA-seq (Table 7)
[7] = system: SLC25A15; assay: RNA-seq of compound-treated primary human hepatocytes, SLC25A15 expression; assay type: cell-based; settings: primary human hepatocytes, RNA-seq (Table 8)
[8] = system: urea cycle genes; assay: RNA-seq of primary human hepatocytes, compounds that modulate multiple urea cycle-related genes; assay type: cell-based; settings: primary human hepatocytes, RNA-seq
[9] = system: OTC; assay: siRNA SMARTpool transfection of primary human hepatocytes, OTC qPCR (Table 3B); assay type: cell-based; settings: siRNA 10 nM, 48 hrs, vs non-targeting siRNA
Procedure: Primary human hepatocytes were reversed transfected with 6 pmol siRNA using RNAiMAX Reagent (ThermoFisher Cat No13778030) in 24 well format, 1 ul per well (for a final cone of 10 nM). The following morning, the medium was removed and replaced with Modified Maintenance Medium (see above) for an additional 24 hrs. The entire treatment lasted 48 hrs, at which point the medium was removed and replaced with RLT Buffer for RNA extraction (Qiagen RNeasy 96 QIAcube HT Kit Cat #74171). siRNAs were obtained from Dharmacon and are a pool of four siRNA duplex all designed to target distinct sites within the specific gene of interest (known as “SMARTpool”). They were tested against the control non-targeting siRNA D-001206-13-05.
Isolated RNA was processed for cDNA synthesis and qPCR as described above. Taqman assay used for OTC measurement: Hs00166892_ml

[10] = system: OTC; assay: JAK inhibitors at 0.3 and 3 μM in primary human hepatocytes, OTC mRNA fold change; assay type: cell-based; settings: fold change vs DMSO
Procedure: (§1) Additional small molecules that inhibit JAK1, JAK2, JAK3, or a combination of the JAK proteins were tested in primary human hepatocytes as described in Example 2. JAK inhibitors were tested in triplicate at 0.3 μM and 3 μM. The results are shown as the fold change (mRNA FC) in the mRNA levels of OTC and CPS1 genes after treatment compared to an untreated control (DMSO) and the standard deviation (SD).

[11] = system: CPS1; assay: JAK inhibitors at 0.3 and 3 μM in primary human hepatocytes, CPS1 mRNA fold change; assay type: cell-based; settings: fold change vs DMSO
Procedure: as §1

[12] = system: OTC; assay: JAK1 inhibitor dose titration in hepatocytes of donors A and B, OTC mRNA normalized to B2M; assay type: cell-based, human; settings: for OTC mRNA FC, Donor A / OTC mRNA FC, Donor B: normalized to B2M
Procedure: (§2) Next, two JAK1 inhibitors were tested at increasing concentrations in a dose titration assy. Hepatocytes from two different donors (A and B) were incubated with the various concentrations of upadacitinib or oclacitinib maleate and harvested for mRNA analysis. OTC and CPS1 mRNA were normalized to house keeping gene B2M gene expression.

[13] = system: CPS1; assay: JAK1 inhibitor dose titration in hepatocytes of donors A and B, CPS1 mRNA normalized to B2M; assay type: cell-based, human; settings: for CPS1 mRNA FC, Donor A / CPS1 mRNA FC, Donor B: normalized to B2M
Procedure: as §2

[14] = system: chromatin domain upstream of the OTC gene; assay: ATAC-seq of the OTC insulated neighborhood in inhibitor-treated hepatocytes; settings: 17 hours of inhibitor treatment
Procedure: Hepatocytes were seeded overnight, then the serum and other factors were removed. After 2-3 hours, the cells were treated with the compound and incubated overnight. The cells were harvested and the nuclei were prepared for the transposition reaction. […] After 9-12 cycles of PCR amplification, libraries were sequenced on an Illumina HiSeq 2000. PCR was performed using barcoded primers with extension at 72° C. for 5 minutes, PCR, then the final PCR product was sequenced.
All obtained reads from each sample were trimmed using trim galore 0.4.1 requiring Phred score ≥20 and read length ≥30 for data analysis. The trimmed reads were mapped against the human genome (hg19 build) using Bowtie2 (version 2.2.9) with the parameters: -t -q -N 1 -L 25 -X 2000 no-mixed no-discordant. All unmapped reads, non-uniquely mapped reads and PCR duplicates were removed. All the ATAC-seq peaks were called using MACS2 with the parameters --nolambda -nomodel -q 0.01 --SPMR. The ATAC-seq signal was visualized in the UCSC genome browser. ATAC-seq peaks that were at least 2 kb away from annotated promoters (RefSeq, Ensemble and UCSC Known Gene databases combined) were selected as distal ATAC-seq peaks.
The ATAC-seq experiment was done in triplicate.

[15] = system: ASS1; assay: RNA-seq of compound-treated primary human hepatocytes, ASS1 expression; assay type: cell-based; settings: primary human hepatocytes
[16] = system: ASL; assay: RNA-seq of compound-treated primary human hepatocytes, ASL expression; assay type: cell-based; settings: primary human hepatocytes
[17] = target: PDGFRα (Homo sapiens, UniProt P16234); settings: cited from earlier work
Sequence of PDGFRα (P16234 24-1089, species assumed): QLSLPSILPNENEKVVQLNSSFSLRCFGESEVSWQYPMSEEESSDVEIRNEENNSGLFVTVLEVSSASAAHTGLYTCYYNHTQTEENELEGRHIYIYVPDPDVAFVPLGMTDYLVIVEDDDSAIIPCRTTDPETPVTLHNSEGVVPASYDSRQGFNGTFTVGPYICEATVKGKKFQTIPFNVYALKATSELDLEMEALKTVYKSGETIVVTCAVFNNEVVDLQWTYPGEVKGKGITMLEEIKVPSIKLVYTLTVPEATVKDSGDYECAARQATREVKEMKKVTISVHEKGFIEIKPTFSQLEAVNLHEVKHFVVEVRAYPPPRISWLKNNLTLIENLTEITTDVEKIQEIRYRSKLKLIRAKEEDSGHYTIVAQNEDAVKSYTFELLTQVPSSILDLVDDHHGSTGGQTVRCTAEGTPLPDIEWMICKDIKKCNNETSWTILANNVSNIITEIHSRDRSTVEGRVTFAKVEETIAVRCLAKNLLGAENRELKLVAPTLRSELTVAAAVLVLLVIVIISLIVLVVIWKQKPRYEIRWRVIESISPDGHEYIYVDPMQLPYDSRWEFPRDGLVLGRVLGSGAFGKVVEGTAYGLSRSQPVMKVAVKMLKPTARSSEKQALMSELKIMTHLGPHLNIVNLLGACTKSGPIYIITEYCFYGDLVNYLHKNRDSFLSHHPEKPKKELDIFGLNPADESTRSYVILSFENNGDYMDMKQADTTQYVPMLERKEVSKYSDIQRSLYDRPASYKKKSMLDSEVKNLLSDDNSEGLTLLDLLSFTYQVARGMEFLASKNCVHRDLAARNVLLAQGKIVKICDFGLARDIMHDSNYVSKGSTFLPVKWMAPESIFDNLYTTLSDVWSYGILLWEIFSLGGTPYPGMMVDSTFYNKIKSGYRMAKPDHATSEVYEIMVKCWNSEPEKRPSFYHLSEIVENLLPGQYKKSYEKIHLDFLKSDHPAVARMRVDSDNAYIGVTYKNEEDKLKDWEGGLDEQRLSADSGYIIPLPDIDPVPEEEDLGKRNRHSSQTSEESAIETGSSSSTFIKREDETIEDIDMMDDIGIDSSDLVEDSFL

[18] = target: PDGFRβ (Homo sapiens, UniProt P09619); settings: cited from earlier work
Sequence of PDGFRβ (P09619 33-1106, species assumed): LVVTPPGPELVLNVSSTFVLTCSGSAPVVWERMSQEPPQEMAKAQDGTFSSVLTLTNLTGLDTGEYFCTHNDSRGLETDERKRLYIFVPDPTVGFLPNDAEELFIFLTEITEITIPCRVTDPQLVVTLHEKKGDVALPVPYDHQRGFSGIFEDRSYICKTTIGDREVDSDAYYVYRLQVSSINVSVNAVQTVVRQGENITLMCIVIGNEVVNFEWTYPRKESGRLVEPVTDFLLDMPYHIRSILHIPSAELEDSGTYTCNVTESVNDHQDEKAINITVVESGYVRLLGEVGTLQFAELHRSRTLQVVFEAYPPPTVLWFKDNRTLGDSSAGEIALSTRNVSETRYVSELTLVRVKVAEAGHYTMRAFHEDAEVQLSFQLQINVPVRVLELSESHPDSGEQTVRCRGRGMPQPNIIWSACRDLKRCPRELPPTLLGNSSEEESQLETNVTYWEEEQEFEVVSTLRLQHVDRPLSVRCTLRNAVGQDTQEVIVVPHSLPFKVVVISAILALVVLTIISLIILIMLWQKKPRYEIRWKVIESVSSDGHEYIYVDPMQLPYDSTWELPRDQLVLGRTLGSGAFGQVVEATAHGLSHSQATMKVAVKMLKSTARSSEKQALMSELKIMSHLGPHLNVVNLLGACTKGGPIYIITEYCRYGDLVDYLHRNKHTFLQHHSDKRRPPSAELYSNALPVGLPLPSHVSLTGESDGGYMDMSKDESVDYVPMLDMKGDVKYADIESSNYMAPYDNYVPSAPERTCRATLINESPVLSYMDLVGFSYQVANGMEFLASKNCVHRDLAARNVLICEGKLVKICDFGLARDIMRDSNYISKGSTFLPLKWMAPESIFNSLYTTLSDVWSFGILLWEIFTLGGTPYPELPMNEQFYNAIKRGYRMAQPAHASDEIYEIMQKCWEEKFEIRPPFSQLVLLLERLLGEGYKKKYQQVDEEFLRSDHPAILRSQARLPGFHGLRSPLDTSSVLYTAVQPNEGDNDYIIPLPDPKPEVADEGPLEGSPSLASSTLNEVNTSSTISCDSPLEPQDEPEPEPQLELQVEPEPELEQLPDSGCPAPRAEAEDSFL

[19] = target: PKCβ (Homo sapiens, UniProt P05771); settings: cited from earlier work
Sequence of PKCβ (P05771 whole entry, species assumed): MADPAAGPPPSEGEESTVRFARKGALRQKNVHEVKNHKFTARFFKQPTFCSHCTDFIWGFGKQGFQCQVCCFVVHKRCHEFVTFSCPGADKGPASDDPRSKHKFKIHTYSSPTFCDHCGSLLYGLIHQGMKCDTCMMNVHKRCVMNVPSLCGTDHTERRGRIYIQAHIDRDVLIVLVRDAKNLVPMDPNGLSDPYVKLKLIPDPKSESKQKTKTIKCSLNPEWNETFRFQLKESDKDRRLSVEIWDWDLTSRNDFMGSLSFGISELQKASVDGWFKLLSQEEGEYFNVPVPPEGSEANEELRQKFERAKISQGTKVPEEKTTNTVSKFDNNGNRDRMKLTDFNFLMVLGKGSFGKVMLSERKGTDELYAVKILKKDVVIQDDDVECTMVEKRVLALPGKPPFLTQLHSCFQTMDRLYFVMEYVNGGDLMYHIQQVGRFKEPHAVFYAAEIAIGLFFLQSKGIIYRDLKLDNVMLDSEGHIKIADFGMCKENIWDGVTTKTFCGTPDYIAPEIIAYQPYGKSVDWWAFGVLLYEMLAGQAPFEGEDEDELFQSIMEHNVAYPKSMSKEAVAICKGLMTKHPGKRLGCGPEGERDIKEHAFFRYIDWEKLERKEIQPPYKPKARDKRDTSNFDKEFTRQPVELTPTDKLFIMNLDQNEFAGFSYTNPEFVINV

[20] = target: PKCα (Homo sapiens, UniProt P17252); settings: cited from earlier work
[21] = target: PKCγ (Homo sapiens, UniProt P05129); settings: cited from earlier work
[22] = target: PKCδ (Homo sapiens, UniProt Q05655); settings: cited from earlier work
Sequence of PKCδ (Q05655 whole entry): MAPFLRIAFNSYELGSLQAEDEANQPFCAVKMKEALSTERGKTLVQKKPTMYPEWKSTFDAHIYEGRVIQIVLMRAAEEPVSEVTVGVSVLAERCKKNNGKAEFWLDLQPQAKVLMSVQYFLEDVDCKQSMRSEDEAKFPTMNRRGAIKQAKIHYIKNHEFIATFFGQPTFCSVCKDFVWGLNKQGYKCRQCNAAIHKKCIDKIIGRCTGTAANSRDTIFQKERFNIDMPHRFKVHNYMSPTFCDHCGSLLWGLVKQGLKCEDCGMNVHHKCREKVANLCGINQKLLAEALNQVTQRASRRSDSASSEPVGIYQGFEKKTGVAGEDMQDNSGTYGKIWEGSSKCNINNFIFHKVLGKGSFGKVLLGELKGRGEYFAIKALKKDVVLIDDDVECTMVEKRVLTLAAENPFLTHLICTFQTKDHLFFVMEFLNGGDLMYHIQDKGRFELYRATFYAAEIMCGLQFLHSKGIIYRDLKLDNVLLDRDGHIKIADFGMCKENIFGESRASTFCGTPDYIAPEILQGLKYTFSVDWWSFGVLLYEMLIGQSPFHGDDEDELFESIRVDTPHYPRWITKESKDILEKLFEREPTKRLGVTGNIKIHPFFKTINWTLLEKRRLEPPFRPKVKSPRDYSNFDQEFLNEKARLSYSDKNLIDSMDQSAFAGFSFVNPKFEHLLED

[23] = target: RARγ (Homo sapiens, UniProt P13631); settings: cited from earlier work
Sequence of RARγ (P13631 whole entry): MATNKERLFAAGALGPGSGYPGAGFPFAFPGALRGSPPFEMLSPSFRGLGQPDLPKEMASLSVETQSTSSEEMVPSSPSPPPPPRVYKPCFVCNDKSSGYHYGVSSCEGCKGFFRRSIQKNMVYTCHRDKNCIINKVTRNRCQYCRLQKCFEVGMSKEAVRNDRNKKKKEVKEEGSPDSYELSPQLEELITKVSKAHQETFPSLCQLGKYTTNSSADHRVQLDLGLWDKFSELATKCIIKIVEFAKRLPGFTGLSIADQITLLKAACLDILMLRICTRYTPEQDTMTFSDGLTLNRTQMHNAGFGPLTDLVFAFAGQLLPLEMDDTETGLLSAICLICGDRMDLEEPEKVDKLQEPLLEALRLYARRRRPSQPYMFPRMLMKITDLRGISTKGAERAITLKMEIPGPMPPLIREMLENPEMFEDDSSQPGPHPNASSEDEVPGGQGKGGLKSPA

[24] = target: RARβ (Homo sapiens, UniProt P10826); settings: cited from earlier work
Sequence of RARβ (P10826 whole entry, species assumed): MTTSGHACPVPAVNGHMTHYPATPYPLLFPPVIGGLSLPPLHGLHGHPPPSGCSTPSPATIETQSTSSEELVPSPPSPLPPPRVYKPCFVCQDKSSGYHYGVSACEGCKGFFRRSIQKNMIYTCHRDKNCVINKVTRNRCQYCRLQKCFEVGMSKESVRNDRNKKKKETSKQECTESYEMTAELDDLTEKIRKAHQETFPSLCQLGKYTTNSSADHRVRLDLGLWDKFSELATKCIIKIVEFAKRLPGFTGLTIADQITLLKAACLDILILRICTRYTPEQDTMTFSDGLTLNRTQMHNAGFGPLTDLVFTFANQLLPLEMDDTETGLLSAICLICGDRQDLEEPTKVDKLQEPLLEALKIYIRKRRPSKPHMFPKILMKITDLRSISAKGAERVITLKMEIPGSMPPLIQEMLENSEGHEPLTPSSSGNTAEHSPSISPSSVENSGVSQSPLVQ

[25] = target: RARα (Homo sapiens, UniProt P10276); settings: cited from earlier work
[26] = system: OTC; assay: Hepatocytes incubated with increasing concentrations of IFN-γ, OTC gene expression; assay type: cell-based, human
Procedure: To further assess the link between JAK1 and the urea cycle genes, hepatocytes were incubated with increasing concentrations of interferon (IFN)-γ, a known JAK1 activator. The cells were harvested for mRNA collection and OTC gene expression was determined as previously described.

[27] = primary human hepatocytes, RNA-seq (Table 6)
[28] = both donor cell lines (A and B)
[29] = Example 11, relative mRNA vs DMSO

STAT5A (DNA ATTTCTNAGAAA; target site or template, no part of the molecule; chemistry not given here)
OTC expression after knockdown in combination with JAK1 [1]: increased

CCOC(=O)C1=C(COCCN)NC(C)=C(C(=O)OC)C1c1ccccc1Cl (stereo not drawn) [Amlodipine Besylate]
Fold change (Log 2) vs untreated, NAGS expression [2, 27]: 0.73 Log 2
IC50 [3]: 1.9 nM

IGF-1: Insulin-like growth factor I
CPS1 expression, Fold change (Log 2) vs untreated [4]: 2.22 Log 2
OTC expression, Fold change (Log 2) vs untreated ([5]; primary human hepatocytes): 0.76 Log 2
Fold change (Log 2) vs untreated, ARG1 expression [6]: 1.89 Log 2
Fold change (Log 2) vs untreated, SLC25A15 expression [7]: 0.8 Log 2
number of urea cycle genes whose expression was significantly up-regulated [8]: four
Up-regulated Genes ([8]; urea cycle-related genes significantly increased (Table 10)): CPS1, OTC, ARG1, SLC25A15
Max fold change in OTC [9]: 1.69 fold

oclacitinib maleate
OTC mRNA FC ([10]; 0.3 uM): 1.32
OTC mRNA FC ([10]; 3 uM): 3.14
CPS1 mRNA FC ([11]; 0.3 uM): 1
CPS1 mRNA FC ([11]; 3 uM): 1.69
OTC mRNA FC, Donor A ([12]; 0.1 uM): 1.97
OTC mRNA FC, Donor B ([12]; 0.1 uM): 2.46
OTC mRNA FC, Donor A ([12]; 0.3 uM): 2.76
OTC mRNA FC, Donor B ([12]; 0.3 uM): 4.28
OTC mRNA FC, Donor A ([12]; 1 uM): 4.79
OTC mRNA FC, Donor B ([12]; 1 uM): 5.97
OTC mRNA FC, Donor A ([12]; 3 uM): 8.92
OTC mRNA FC, Donor B ([12]; 3 uM): 11.00
OTC mRNA FC, Donor A ([12]; 10 uM): 11.65
OTC mRNA FC, Donor B ([12]; 10 uM): 11.46
OTC mRNA expression, dose titration [12, 28]: dose dependent increase
CPS1 mRNA FC, Donor A ([13]; 0.1 uM): 1.61
CPS1 mRNA FC, Donor B ([13]; 0.1 uM): 4.60
CPS1 mRNA FC, Donor A ([13]; 0.3 uM): 2.37
CPS1 mRNA FC, Donor B ([13]; 0.3 uM): 4.50
CPS1 mRNA FC, Donor A ([13]; 1 uM): 3.12
CPS1 mRNA FC, Donor B ([13]; 1 uM): 3.34
CPS1 mRNA FC, Donor A ([13]; 3 uM): 4.82
CPS1 mRNA FC, Donor B ([13]; 3 uM): 2.57
CPS1 mRNA FC, Donor A ([13]; 10 uM): 5.99
CPS1 mRNA FC, Donor B ([13]; 10 uM): 1.90
CPS1 mRNA expression, dose titration [13, 28]: dose dependent increase
newly accessible chromatin domain upstream of the OTC gene (ATAC-seq) [14]: newly accessible chromatin domain

IRF1 (DNA GAAAGTGAAAGT; siRNA; chemistry not given here; the letters are possibly those of the target site)
Max fold change in OTC [9]: 1.70 fold

SMAD3 (DNA YGTCTAGACA; siRNA; chemistry not given here; the letters are possibly those of the target site)
Max fold change in OTC [9]: 2.49 fold

COCCOc1ccc2c(c1)ncn2-c1ccc2cccc(N3CCC(N)CC3)c2n1 [CP-673451]
Relative CPS1 level vs Untreated (±Standard Deviation) ([4]; 10 uM, triplicate (Table 20, FIG. 12)): 3.90 ± 0.97
CPS1 expression, Fold change (Log 2) vs untreated [4]: 1.77 Log 2
Relative OTC level vs Untreated (±Standard Deviation) ([5]; 10 uM, primary human hepatocytes, triplicate (Table 14)): 3.36 ± 1.73
increase in OTC gene expression (Table 14, FIG. 6) [5, 29]: significant increase
OTC expression, Fold change (Log 2) vs untreated ([5]; primary human hepatocytes): 2.63 Log 2
Relative ASS1 level vs Untreated (±Standard Deviation) ([15]; 10 uM, triplicate (Table 15, FIG. 8)): 2.13 ± 0.68
Fold change (Log 2) vs untreated, ASS1 expression ([15]; RNA-seq (Table 4)): 1.52 Log 2
Relative ASL level vs Untreated (±Standard Deviation) ([16]; 10 uM, triplicate (Table 25, FIG. 17)): 2.94 ± 0.78
ASL expression, Fold change (Log 2) vs untreated ([16]; RNA-seq): 1.81 Log 2
increase in ARG1 gene expression (Tables 17, 18, FIG. 9, 10) [6, 29]: greatest increase
Fold change (Log 2) vs untreated, ARG1 expression [6]: 3.21 Log 2
Fold change (Log 2) vs untreated, SLC25A15 expression [7]: 0.76 Log 2
number of urea cycle genes whose expression was significantly up-regulated [8]: six
IC50 [17]: 10 nM
selectivity over other angiogenic receptors [18]: > 450 fold

COc1ccc2c(c1)c(C1=C(c3c[nH]c4ccccc34)C(=O)NC1=O)cn2CCCN(C)C [GO6983]
Fold change (Log 2) vs untreated, NAGS expression [2, 27]: 0.7 Log 2
IC50 [19]: 7 nM
IC50 [20]: 7 nM
IC50 [21]: 6 nM
IC50 [22]: 10 nM

STAT1 (DNA NATTTCCNGGAAAT; target site or template, no part of the molecule; chemistry not given here)
OTC expression after knockdown in combination with JAK1 [1]: increased

COCCOCOc1cc2ccc(-c3ccc(C(=O)O)cc3)cc2cc1C12CC3CC(CC(C3)C1)C2 [CD 2665]
Fold change (Log 2) vs untreated, NAGS expression [2]: 0.62 Log 2
Kd [23]: 110 nM
Kd [24]: 306 nM
Kd [25]: > 1000 nM

B1: IFN-γ: interferon (IFN)-γ, a known JAK1 activator (protein, UniProt P01579 24-161, looked up)
Interferon gamma: QDPYVKEAENLKKYFNAGHSDVADNGTLFLGILKNWKEESDRKIMQSQIVSFYFKLFKNFKDDQSIQKSVETIKEDMNVKFFNSNKKKRDDFEKLTNYSVTDLNVQRKAIHELIQVMAELSPAAKTGKRKRSQMLFRG
OTC gene expression after IFN-γ [26]: dose-dependent decrease
OTC gene expression after IFN-γ ([26]; listed as IFNγ): decreases
